Data: patent publication US11739100B2, “2,3-dihydro-1h-imidazo{1,2-a}pyrimidin-5-one and this 1,2,3,4-tetrahydropyrimido{1,2-a}pyrimidin-6-one derivatives comprising a substituted morpholine, preparation thereof and pharmaceutical use thereof” (SANOFI, priority 2012, dated 2023)

target: T1, recombinant Vps34 (Homo sapiens, UniProt Q8NEB9); test: Phosphorylation of phosphatidylinositol (PI) by Vps34 in vitro, ADP detected by TR-FRET (HTRF Transcreener ADP); type: biochemical; conditions: 10 μM ATP, 55 μg/ml PI, approximately 3 nM Vps34, 1 hour at ambient temperature; absolute IC50, mean of two independent experiments; read-out: IC50 activity range
T1 construct: purchased Invitrogen PV5126
T1 sequence (Q8NEB9 whole entry): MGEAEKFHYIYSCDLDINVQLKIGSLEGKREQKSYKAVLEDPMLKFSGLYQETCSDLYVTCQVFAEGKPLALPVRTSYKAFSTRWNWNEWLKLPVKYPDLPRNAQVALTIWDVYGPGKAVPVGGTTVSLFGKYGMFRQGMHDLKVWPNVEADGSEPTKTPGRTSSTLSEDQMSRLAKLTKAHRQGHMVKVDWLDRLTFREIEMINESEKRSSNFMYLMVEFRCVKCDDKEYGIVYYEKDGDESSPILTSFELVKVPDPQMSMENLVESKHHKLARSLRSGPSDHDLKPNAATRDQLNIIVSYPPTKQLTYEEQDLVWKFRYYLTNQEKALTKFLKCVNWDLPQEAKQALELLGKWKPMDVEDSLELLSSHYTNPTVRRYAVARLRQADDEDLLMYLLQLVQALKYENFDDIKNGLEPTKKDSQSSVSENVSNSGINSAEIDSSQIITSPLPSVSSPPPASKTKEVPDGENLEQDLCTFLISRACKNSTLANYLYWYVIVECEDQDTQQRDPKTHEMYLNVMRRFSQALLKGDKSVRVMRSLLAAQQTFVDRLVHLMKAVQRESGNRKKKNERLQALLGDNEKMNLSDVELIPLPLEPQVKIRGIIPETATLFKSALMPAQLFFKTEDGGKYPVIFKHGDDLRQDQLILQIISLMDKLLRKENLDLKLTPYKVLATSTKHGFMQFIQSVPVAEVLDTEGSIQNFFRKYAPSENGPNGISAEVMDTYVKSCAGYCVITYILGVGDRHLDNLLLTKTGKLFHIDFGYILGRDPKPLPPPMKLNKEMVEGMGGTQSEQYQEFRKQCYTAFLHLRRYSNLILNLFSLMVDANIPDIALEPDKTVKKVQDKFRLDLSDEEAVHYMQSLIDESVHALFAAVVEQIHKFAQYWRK

Row | IC50 [nM] | SMILES
1 | 10 to 100 | Cc1noc(CN2c3nc(N4CCOC[C@H]4C)cc(=O)n3C[C@@]2(C)C(F)(F)F)n1 [Example 208, (S)-2-Methyl-7-((R)-3-methylmorpholin-4-yl)-1-(3-methyl-[1,2,4]oxadiazol-5-yl-methyl)-2-trifluoromethyl-2,3-dihydro-1H-imidazo[1,2-a]-pyrimidin-5-one]
2 | < 10 | Cc1nocc1CN1c2nc(N3CCOC[C@H]3C)c(F)c(=O)n2CC[C@H]1C(F)(F)F [Example 62, (S)-3-Fluoro-9-(3-methylisoxazol-4-yl-methyl)-2-((R)-3-methylmorpholin-4-yl)-8-trifluoromethyl-6,7,8,9-tetrahydro-pyrimido[1,2-a]-pyrimidin-4-one]
3 | < 10 | C[C@@H]1COCCN1c1cc(=O)n2c(n1)N(CC(=O)N1CCCO1)[C@H](C(F)(F)F)CC2 [Example 319, (S)-9-(2-Isoxazolidin-2-yl-2-oxoethyl)-2-((R)-3-methyl-morpholin-4-yl)-8-trifluoromethyl-6,7,8,9-tetrahydropyrimido-[1,2-a]pyrimidin-4-one]
4 | < 10 | C[C@@H]1COCCN1c1cc(=O)n2c(n1)N(CC(O)c1cccnc1)[C@H](C(F)(F)F)CC2 (single isomer, unassigned) [Example 209]
5 | < 10 | C[C@@H]1COCCN1c1nc2n(c(=O)c1F)CC[C@@H](C(F)(F)F)N2Cc1cscn1 [Example 69, (S)-3-Fluoro-2-((R)-3-methylmorpholin-4-yl)-9-thiazol-4-ylmethyl-8-trifluoromethyl-6,7,8,9-tetrahydro-pyrimido[1,2-a]-pyrimidin-4-one]
6 | > 100 | O=c1cc(N2CCOCC2CO)nc2n1CC[C@@H](C(F)(F)F)N2c1cc(F)cc(F)c1 (single isomer, unassigned) [Example 176]
7 | < 10 | C[C@@H]1COCCN1c1cc(=O)n2c(n1)N(CC(=O)c1ncccc1F)[C@H](C(F)(F)F)CC2 [Example 60, (S)-9-[2-(3-Fluoro-pyridin-2-yl)-2-oxo-ethyl]-2-((R)-3-methyl-morpholin-4-yl)-8-trifluoromethyl-6,7,8,9-tetrahydro-pyrimido[1,2-a]-pyrimidin-4-one]
8 | < 10 | C[C@@H]1COCCN1c1nc2n(c(=O)c1F)C[C@@](C)(C(F)(F)F)N2CC(=O)c1cccnc1 [Example 189, (S)-6-Fluoro-2-methyl-7-((R)-3-methyl-morpholin-4-yl)-1-(2-oxo-2-pyridin-3-yl-ethyl)-2-trifluoromethyl-2,3-dihydro-1H-imidazo[1,2-a]-pyrimidin-5-one]
9 | 10 to 100 | Cc1nc(CN2c3nc(N4CC5CCC(C4)O5)c(F)c(=O)n3CC[C@H]2C(F)(F)F)no1 [Example 275, (S)-3-Fluoro-9-(5-methyl-[1,2,4]oxadiazol-3-yl-methyl)-2-(8-oxa-3-azabicyclo[3.2.1]oct-3-yl)-8-trifluoromethyl-6,7,8,9-tetrahydro-pyrimido[1,2-a]-pyrimidin-4-one]
10 | < 10 | CC(C)Oc1ncccc1CN1c2nc(N3CCOC[C@H]3C)cc(=O)n2CC[C@H]1C(F)(F)F [Example 230, (S)-9-(2-Isopropoxy-pyridin-3-ylmethyl)-2-((R)-3-methyl-morpholin-4-yl)-8-trifluoromethyl-6,7,8,9-tetrahydro-pyrimido[1,2-a]-pyrimidin-4-one]
11 | < 10 | C[C@@H]1COCCN1c1cc(=O)n2c(n1)N(c1cccnc1)[C@H](C(F)(F)F)CC2 [Example 301, (S)-2-((R)-3-Methyl-morpholin-4-yl)-9-pyridin-3-yl-8-trifluoromethyl-6,7,8,9-tetrahydro-pyrimido[1,2-a]-pyrimidin-4-one]
12 | < 10 | C[C@@H]1COCCN1c1cc(=O)n2c(n1)N(Cc1ccnc(Cl)c1)[C@H](C(F)(F)F)CC2 [Example 76, (S)-9-(2-Chloro-pyridin-4-ylmethyl)-2-((R)-3-methyl-morpholin-4-yl)-8-trifluoromethyl-6,7,8,9-tetrahydro-pyrimido[1,2-a]-pyrimidin-4-one]
13 | < 10 | C[C@@H]1COCCN1c1nc2n(c(=O)c1F)CC[C@@H](C(F)(F)F)N2CC(=O)c1ncccc1F [Example 59, (S)-3-Fluoro-9-[2-(3-fluoropyridin-2-yl)-2-oxoethyl]-2-((R)-3-methylmorpholin-4-yl)-8-trifluoromethyl-6,7,8,9-tetrahydro-pyrimido[1,2-a]-pyrimidin-4-one]
14 | < 10 | C[C@@H]1COCCN1c1nc2n(c(=O)c1F)CC[C@@H](C(F)(F)F)N2Cc1nc(C(F)(F)F)no1 [Example 251, (S)-3-Fluoro-2-((R)-3-methylmorpholin-4-yl)-8-trifluoromethyl-9-(3-trifluoromethyl-[1,2,4]oxadiazol-5-yl-methyl)-6,7,8,9-tetrahydro-pyrimido[1,2-a]-pyrimidin-4-one]
15 | < 10 | C[C@@H]1COCCN1c1cc(=O)n2c(n1)N(Cc1cnco1)[C@H](C(F)(F)F)CC2 [Example 91, (S)-2-((R)-3-Methyl-morpholin-4-yl)-9-oxazol-5-ylmethyl-8-trifluoromethyl-6,7,8,9-tetrahydro-pyrimido[1,2-a]-pyrimidin-4-one]
16 | > 100 | Cc1nocc1C(=O)CN1c2nc(N3CCOC[C@H]3C)cc(=O)n2CC[C@H]1C(F)(F)F [Example 268, (S)-9-[2-(3-Methyl-isoxazol-4-yl)-2-oxo-ethyl]-2-((R)-3-methyl-morpholin-4-yl)-8-trifluoromethyl-6,7,8,9-tetrahydro-pyrimido[1,2-a]-pyrimidin-4-one]
17 | 10 to 100 | C[C@@H]1COCCN1c1cc(=O)n2c(n1)N(CC(=O)N(C)C)[C@H](C(F)(F)F)CC2 [Example 222, N,N-Dimethyl-2-[(S)-8-((R)-3-methyl-morpholin-4-yl)-6-oxo-2-trifluoromethyl-3,4-dihydro-2H,6H-pyrimido[1,2-a]-pyrimidin-1-yl]-acetamide]
18 | > 100 | CC(C)C(=O)CN1c2nc(N3CCOC[C@@H]3C)c(F)c(=O)n2CC[C@H]1C(F)(F)F [Example 278, (S)-3-Fluoro-2-((S)-3-methylmorpholin-4-yl)-9-(3-methyl-2-oxo-butyl)-8-trifluoromethyl-6,7,8,9-tetrahydro-pyrimido[1,2-a]-pyrimidin-4-one]
19 | < 10 | C[C@@H]1COCCN1c1nc2n(c(=O)c1F)CC[C@@H](C(F)(F)F)N2Cc1ccnc(F)c1 [Example 5, (S)-3-Fluoro-9-(2-fluoropyridin-4-yl-methyl)-2-((R)-3-methylmorpholin-4-yl)-8-trifluoromethyl-6,7,8,9-tetrahydro-pyrimido[1,2-a]-pyrimidin-4-one]
20 | 10 to 100 | O=c1cc(N2CC3CCC(C2)O3)nc2n1CC[C@@H](C(F)(F)F)N2Cc1ccc(Cl)nc1 [Example 168, (S)-9-(6-Chloro-pyridin-3-ylmethyl)-2-(8-oxa-3-aza-bicyclo[3.2.1]oct-3-yl)-8-trifluoromethyl-6,7,8,9-tetrahydro-pyrimido[1,2-a]-pyrimidin-4-one]
21 | > 100 | CC(=O)N1c2nc(N3CCOC[C@H]3C)cc(=O)n2CC[C@H]1C(F)(F)F [Example 238, (S)-9-Acetyl-2-((R)-3-methylmorpholin-4-yl)-8-trifluoromethyl-6,7,8,9-tetrahydro-pyrimido[1,2-a]-pyrimidin-4-one]
22 | < 10 | CC(C)OC(=O)CN1c2nc(N3CCOC[C@H]3C)cc(=O)n2CC[C@H]1C(F)(F)F [Example 254, [(S)-8-((R)-3-Methyl-morpholin-4-yl)-6-oxo-2-trifluoromethyl-3,4-dihydro-2H,6H-pyrimido[1,2-a]-pyrimidin-1-yl]acetic acid isopropyl ester]
23 | < 10 | C[C@@H]1COCCN1c1cc(=O)n2c(n1)N(Cc1ccnc(F)c1)[C@H](C(F)(F)F)CC2 [Example 257, (S)-9-(2-Fluoropyridin-4-ylmethyl)-2-((R)-3-methylmorpholin-4-yl)-8-trifluoromethyl-6,7,8,9-tetrahydro-pyrimido[1,2-a]-pyrimidin-4-one]
24 | 10 to 100 | C[C@@H]1COCCN1c1cc(=O)n2c(n1)N(Cc1ccncc1)[C@H](C(F)(F)F)CC2 [Example 216, (S)-2-((R)-3-Methyl-morpholin-4-yl)-9-pyridin-4-ylmethyl-8-trifluoromethyl-6,7,8,9-tetrahydro-pyrimido[1,2-a]-pyrimidin-4-one]
25 | 10 to 100 | O=c1cc(N2CCOCC2CO)nc2n1CC[C@@H](C(F)(F)F)N2Cc1ccc(Cl)s1 (single isomer, unassigned) [Example 177]
26 | < 10 | C[C@@H]1COCCN1c1nc2n(c(=O)c1F)CC[C@@H](C(F)(F)F)N2CC(=O)N1CC2(CCO2)C1 [Example 333, (S)-3-Fluoro-2-((R)-3-methylmorpholin-4-yl)-9-[2-(1-oxa-6-aza-spiro[3.3]hept-6-yl)-2-oxoethyl]-8-trifluoromethyl-6,7,8,9-tetrahydropyrimido-[1,2-a]pyrimidin-4-one]
27 | < 10 | C[C@@H]1COCCN1c1cc(=O)n2c(n1)N(CC(=O)C1CCOCC1)CC[C@@H]2C(F)(F)F [Example 131, (R)-2-((R)-3-Methyl-morpholin-4-yl)-9-[2-oxo-2-(tetrahydro-pyran-4-yl)ethyl]-6-trifluoromethyl-6,7,8,9-tetrahydro-pyrimido[1,2-a]-pyrimidin-4-one]
28 | < 10 | C[C@@H]1COCCN1c1cc(=O)n2c(n1)N(Cc1cncc(F)c1)[C@H](C(F)(F)F)CC2 [Example 94, (S)-9-(5-Fluoropyridin-3-ylmethyl)-2-((R)-3-methylmorpholin-4-yl)-8-trifluoromethyl-6,7,8,9-tetrahydro-pyrimido[1,2-a]-pyrimidin-4-one]
29 | < 10 | CC(C)CCC(=O)CN1c2nc(N3CCOC[C@H]3C)cc(=O)n2CC[C@H]1C(F)(F)F [Example 290, (S)-2-((R)-3-Methyl-morpholin-4-yl)-9-(5-methyl-2-oxo-hexyl)-8-trifluoromethyl-6,7,8,9-tetrahydro-pyrimido[1,2-a]-pyrimidin-4-one]
30 | < 10 | C[C@@H]1COCCN1c1cc(=O)n2c(n1)N(c1ccc(C(F)F)nc1)C(C(F)(F)F)CC2 (stereo partly drawn) [Example 134, 9-(6-Difluoromethyl-pyridin-3-yl)-2-((R)-3-methylmorpholin-4-yl)-8-trifluoromethyl-6,7,8,9-tetrahydro-pyrimido[1,2-a]-pyrimidin-4-one]
